Measured values from US7790725B2, “Thiazolidine derivatives and medicinal use thereof” (Mitsubishi Tanabe Pharma Corporation, priority 2001, dated 2010).
Structures can show the parent of a compound that is named as a salt.

Legend:
Human plasma DPP-IV = molecular target: T1, Human plasma DPP-IV (Homo sapiens, UniProt P27487); assay: Plasma DPP-IV inhibitory activity, fluorescence assay with Gly-Pro-MCA (human plasma); assay type: biochemical; conditions: for IC50: human plasma (10-fold dilution), Gly-Pro-MCA substrate, room temperature, 60 min
T1 construct: Human plasma DPP-IV; from tissue; host or cells: human plasma
Experimental: (§1) The plasma DPP-IV inhibitory activity of human and rat was measured according to the fluorescence assay method and under the conditions of Table 10. As a DPP-IV specific fluorescent substrate, Gly-Pro-MCA (Peptide Institute, Inc.) was used, and reaction solutions having the following compositions containing various concentrations of the test substance were incubated at room temperature for 60 min and the fluorescence intensity (Excitation 360 nm/Emission 465 nm) measured (SPECTRA FLUOR, Tecan Group, Ltd.) was taken as the DPP-IV activity.
(§2) The inhibitory ratio to a solvent addition group was calculated and IC50 value was determined by logistic analysis.

Rat plasma DPP-IV = molecular target: T2, Rat plasma DPP-IV (Rattus norvegicus, UniProt P14740); assay: Plasma DPP-IV inhibitory activity, fluorescence assay with Gly-Pro-MCA (rat plasma); assay type: biochemical; conditions: rat plasma (10-fold dilution), Gly-Pro-MCA substrate, room temperature, 60 min
T2 construct: Rat plasma DPP-IV; from tissue; host or cells: rat plasma
Experimental: as §1, §2

T1 sequence (P27487 39-766 limits assumed): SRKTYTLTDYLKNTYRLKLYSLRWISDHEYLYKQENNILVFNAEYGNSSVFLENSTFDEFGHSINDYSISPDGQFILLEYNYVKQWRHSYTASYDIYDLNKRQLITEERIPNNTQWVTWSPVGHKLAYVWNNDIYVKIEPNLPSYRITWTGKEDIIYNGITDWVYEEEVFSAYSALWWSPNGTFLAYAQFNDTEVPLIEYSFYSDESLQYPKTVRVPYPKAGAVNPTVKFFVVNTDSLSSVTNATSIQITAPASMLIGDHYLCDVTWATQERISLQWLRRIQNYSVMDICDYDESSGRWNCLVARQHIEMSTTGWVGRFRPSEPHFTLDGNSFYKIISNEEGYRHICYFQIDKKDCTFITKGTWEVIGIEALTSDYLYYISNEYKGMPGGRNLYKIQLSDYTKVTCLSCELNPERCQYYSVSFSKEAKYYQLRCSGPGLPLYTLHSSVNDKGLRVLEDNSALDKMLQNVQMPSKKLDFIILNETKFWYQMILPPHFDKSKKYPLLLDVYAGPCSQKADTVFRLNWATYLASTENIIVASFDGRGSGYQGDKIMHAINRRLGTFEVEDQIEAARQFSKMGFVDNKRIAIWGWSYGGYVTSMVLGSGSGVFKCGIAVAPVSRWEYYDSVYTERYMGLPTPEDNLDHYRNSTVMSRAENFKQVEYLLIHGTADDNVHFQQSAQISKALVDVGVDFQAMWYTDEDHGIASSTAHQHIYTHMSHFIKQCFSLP
T2 sequence (P14740 38-767 limits assumed): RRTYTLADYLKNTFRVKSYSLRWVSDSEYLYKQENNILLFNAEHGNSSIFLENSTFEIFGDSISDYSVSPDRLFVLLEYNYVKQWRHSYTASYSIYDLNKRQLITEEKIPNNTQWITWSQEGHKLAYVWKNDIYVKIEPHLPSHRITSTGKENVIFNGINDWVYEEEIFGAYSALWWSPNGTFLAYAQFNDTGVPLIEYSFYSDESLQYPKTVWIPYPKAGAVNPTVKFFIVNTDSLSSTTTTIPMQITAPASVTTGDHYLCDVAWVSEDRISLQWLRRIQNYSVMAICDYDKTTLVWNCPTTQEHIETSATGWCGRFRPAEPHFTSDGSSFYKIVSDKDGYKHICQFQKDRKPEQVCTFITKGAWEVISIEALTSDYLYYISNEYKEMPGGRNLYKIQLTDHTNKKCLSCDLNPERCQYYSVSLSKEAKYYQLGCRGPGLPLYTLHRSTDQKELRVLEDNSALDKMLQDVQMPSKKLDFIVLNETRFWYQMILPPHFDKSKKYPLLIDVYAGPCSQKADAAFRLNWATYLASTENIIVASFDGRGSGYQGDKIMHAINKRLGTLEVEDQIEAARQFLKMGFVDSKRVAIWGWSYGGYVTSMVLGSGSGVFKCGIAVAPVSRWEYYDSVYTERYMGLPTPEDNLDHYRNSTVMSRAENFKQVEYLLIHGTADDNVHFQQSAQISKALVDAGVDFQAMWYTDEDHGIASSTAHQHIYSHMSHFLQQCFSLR

Structure (SMILES)	IC50 (Human plasma DPP-IV) [µM]	IC50 (Rat plasma DPP-IV) [µM]	plasma DPP-IV inhibitory activity (assessment in words) (Human plasma DPP-IV; statement in the text on Experimental Example 1, species not distinguished)
N#Cc1ccc(NCCCC[C@H](N)C(=O)N2CCSC2)c([N+](=O)[O-])c1 [Example 5, 3-[(S)-2-amino-6-(4-cyano-2-nitrophenylamino)hexanoyl]-1,3-thiazolidine]	0.028	0.019	–
N#Cc1ccc(NCCCC[C@H](N)C(=O)N2CCSC2)nc1 [Example 6, 3-[(S)-2-amino-6-(5-cyanopyridin-2-ylamino)hexanoyl]-1,3-thiazolidine dihydrochloride]	0.034	0.029	–
CS(=O)(=O)c1ccc(NCCCC[C@H](N)C(=O)N2CCSC2)cc1 [Example 7, 3-[(S)-2-amino-6-(4-methanesulfonylphenylamino)hexanoyl]-1,3-thiazolidine]	0.015	0.013	–
N#Cc1ccc(NCCCC[C@H](N)C(=O)N2CCSC2)cc1C(F)(F)F [Example 13, 3-{(S)-2-amino-6-[4-cyano-3-(trifluoromethyl)phenylamino]hexanoyl}-1,3-thiazolidine]	0.066	0.04	–
N[C@@H](CCCCNc1ccc([N+](=O)[O-])cn1)C(=O)N1CCSC1 [Example 14, 3-[(S)-2-amino-6-(5-nitropyridin-2-ylamino)hexanoyl]-1,3-thiazolidine]	0.029	0.018	–
N[C@@H](CCCCN1CCN(c2cc(C(F)(F)F)nc3ccccc23)CC1)C(=O)N1CCSC1 [Example 28, 3-{(S)-2-amino-6-[4-(2-trifluoromethyl-4-quinolyl)piperazin-1-yl]hexanoyl}-1,3-thiazolidine dihydrochloride]	0.035	0.049	–
O=C([C@@H]1C[C@H](N2CCN(c3cc(C(F)(F)F)nc4ccc(O)cc34)CC2)CN1)N1CCSC1 [Example 48, 3-{(2S,4S)-4-[4-(2-trifluoromethyl-6-hydroxy-4-quinolyl)-1-piperazinyl]-2-pyrrolidinylcarbonyl}-1,3-thiazolidine dihydrochloride]	0.00025	0.00037	–
COc1cc(OC)c2nc(C(F)(F)F)cc(N3CCN([C@@H]4CN[C@H](C(=O)N5CCSC5)C4)CC3)c2c1 [Example 55, 3-{(2S,4S)-4-[4-(2-trifluoromethyl-6,8-dimethoxy-4-quinolyl)-1-piperazinyl]-2-pyrrolidinylcarbonyl}-1,3-thiazolidine dihydrochloride]	0.00024	0.0003	–
Cc1cc(C)n(C2CCN([C@@H]3CN[C@H](C(=O)N4CCSC4)C3)CC2)n1 [Example 56, 3-{(2S,4S)-4-[4-(3,5-dimethyl-1-pyrazolyl)piperidino]-2-pyrrolidinylcarbonyl}-1,3-thiazolidine trihydrochloride]	0.00091	0.00117	–
NCCCC[C@H](N)C(=O)N1CCSC1.O=C(O)C(F)(F)F.O=C(O)C(F)(F)F [comparison compound 1, 3-L-lysyl-1,3-thiazolidine ditrifluoroacetate, reference compound]	0.856	0.719	sufficient
